Test results from US20240158446A1, “CYCLIC COMPOUND HAVING SELECTIVE INHIBITORY ACTION ON KRAS OVER HRAS AND NRAS” (CHUGAI SEIYAKU KABUSHIKI KAISHA, priority 2021, published 2024).
Read-outs that look alike come from different tables or passages of the source. Where a SMILES comes first, the peptide text is derived from it. Bridges are numbered along the chain shown (N, C = ends). [ ]: non-standard residue; d: D form. The star is where a group is joined. hPhe(3-Cl-4-CF3) = N[C@@H](CCc1ccc(C(F)(F)F)c(Cl)c1)C(=O)O; NPrPhe(4-CF3) = CCCN[C@@H](Cc1ccc(C(F)(F)F)cc1)C(=O)O; hPhe(3,4-Cl2) = N[C@@H](CCc1ccc(Cl)c(Cl)c1)C(=O)O; NMeGly(cPent) = CN[C@H](C(=O)O)C1CCCC1; NMeD = CN[C@@H](CC(=O)O)C(=O)O; NMeL = CN[C@@H](CC(C)C)C(=O)O; Morpholide = C1CN(*)CCO1; Ac5c = NC1(C(=O)O)CCCC1; Aze = O=C(O)[C@@H]1CCN1; Sar = CNCC(=O)O

What was measured:
[1] = target: GDP-bound HRAS wild-type protein (Homo sapiens, UniProt P01112); experiment: Binding to HRAS by surface plasmon resonance (SPR), Single Cycle Kinetics; conditions: for HRAS/KRAS (ratio of KD value for HRAS to KD value for KRAS): SPR, GDP-bound HRAS wild-type protein vs GDP-bound KRAS wild-type protein
Sequence of GDP-bound HRAS wild-type protein (P01112 whole entry): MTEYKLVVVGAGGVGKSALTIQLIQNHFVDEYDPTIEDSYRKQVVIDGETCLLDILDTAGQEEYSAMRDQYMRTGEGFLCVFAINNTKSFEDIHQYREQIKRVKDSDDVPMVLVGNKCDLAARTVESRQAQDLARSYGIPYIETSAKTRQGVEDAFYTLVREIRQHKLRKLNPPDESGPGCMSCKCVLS

[2] = target: GDP-bound NRAS wild-type protein (Homo sapiens, UniProt P01111); experiment: Binding to NRAS by surface plasmon resonance (SPR), Single Cycle Kinetics; conditions: for NRAS/KRAS (ratio of KD value for NRAS to KD value for KRAS): SPR, GDP-bound NRAS wild-type protein vs GDP-bound KRAS wild-type protein
Sequence of GDP-bound NRAS wild-type protein (P01111 whole entry): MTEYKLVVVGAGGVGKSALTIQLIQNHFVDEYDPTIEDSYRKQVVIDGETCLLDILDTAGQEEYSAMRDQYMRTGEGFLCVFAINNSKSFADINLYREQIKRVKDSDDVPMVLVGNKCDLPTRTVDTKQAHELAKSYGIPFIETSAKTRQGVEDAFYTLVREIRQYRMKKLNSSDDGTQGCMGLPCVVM

[3] = target: GDP-bound KRAS wild-type protein (Homo sapiens, UniProt P01116); experiment: Binding to KRAS by surface plasmon resonance (SPR), Single Cycle Kinetics; conditions: GDP-bound KRAS wild-type protein, read-out: KRAS KD
Sequence of GDP-bound KRAS wild-type protein (P01116 whole entry): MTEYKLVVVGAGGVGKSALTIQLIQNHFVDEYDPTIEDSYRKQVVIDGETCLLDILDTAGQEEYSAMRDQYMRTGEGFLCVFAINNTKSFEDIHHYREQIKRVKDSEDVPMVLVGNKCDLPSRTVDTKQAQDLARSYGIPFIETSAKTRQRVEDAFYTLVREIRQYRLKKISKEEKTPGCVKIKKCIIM

[4] = SPR Single Cycle Kinetics, 1:1 binding model

| SMILES | Kd [3, 4] [nM] | Kd ([3]; SPR, Single Cycle Kinetics) [nM] | HRAS/KRAS (ratio of KD value for HRAS to KD value for KRAS) [1] | NRAS/KRAS (ratio of KD value for NRAS to KD value for KRAS) [2] | HRAS/KRAS (ratio of KD value with respect to GDP-bound HRAS wild-type protein to KD value with respect to KRAS) ([1]; SPR KD ratio HRAS/KRAS, class symbols) | NRAS/KRAS (ratio of KD value with respect to GDP-bound NRAS wild-type protein to KD value with respect to KRAS) ([2]; SPR KD ratio NRAS/KRAS, class symbols) |
| --- | --- | --- | --- | --- | --- | --- |
| CCCN1C(=O)CN(C)C(=O)[C@@H]2CCN2C(=O)[C@H]([C@@H](C)CC)NC(=O)[C@H](CC(C)C)N(C)C(=O)C[C@@H](C(=O)N2CCOCC2)N(C)C(=O)[C@H](C2CCCC2)N(C)C(=O)C2(CCCC2)NC(=O)CN(C)C(=O)[C@H](CCc2ccc(C(F)(F)F)c(Cl)c2)NC(=O)CN(C)C(=O)[C@@H]1Cc1ccc(C(F)(F)F)cc1 [PP0314] ([NMeL]I[Aze][Sar][NPrPhe(4-CF3)][Sar][hPhe(3-Cl-4-CF3)][Sar][Ac5c][NMeGly(cPent)][NMeD]-Morpholide; lactam N-11) | 1.6 |  | C (A compound having a KD ratio of 0.1 or more and less than 3 is denoted as C) | B (a compound having 3 or more and less than 10 is denoted as B) |  |  |
| CCCN1C(=O)CN(C)C(=O)CN(C)C(=O)[C@H]([C@@H](C)CC)NC(=O)[C@H](CC(C)C)N(C)C(=O)C[C@@H](C(=O)N2CCOCC2)N(C)C(=O)[C@H](C2CCCC2)N(C)C(=O)C2(CCCC2)NC(=O)[C@@H]2CCCN2C(=O)[C@H](CCc2ccc(Cl)c(Cl)c2)NC(=O)CN(C)C(=O)[C@@H]1Cc1ccc(C(F)(F)F)cc1 [PP0232] ([NMeL]I[Sar][Sar][NPrPhe(4-CF3)][Sar][hPhe(3,4-Cl2)]P[Ac5c][NMeGly(cPent)][NMeD]-Morpholide; lactam N-11) | 0.28 |  | B (a compound having 3 or more and less than 10 is denoted as B) | B (a compound having 3 or more and less than 10 is denoted as B) |  |  |
| CCO[C@@H]1C[C@H]2C(=O)NC3(CCC3)C(=O)N(C)[C@@H](C3CCCC3)C(=O)N(CC)[C@H](C(=O)N3CCOCC3)CC(=O)N(C)[C@@H](CO)C(=O)N[C@@H]([C@@H](C)CC)C(=O)N(C)CC(=O)N(C)[C@H]3CCCCCN(C3=O)[C@@H](Cc3ccc(C(F)(F)F)cc3)C(=O)N(C)CC(=O)N[C@@H](CCc3cc(F)c(C(F)(F)F)c(F)c3)C(=O)N2C1 [PP0945] |  | 3.7 | A (a compound having 10 or more and less than 20 is denoted as A) | B (a compound having 3 or more and less than 10 is denoted as B) |  |  |
| C=CCN1CC(=O)N(C)[C@H]2C/C=C\CCN(C2=O)[C@@H](Cc2ccc(C)cc2)C(=O)N(C)CC(=O)N[C@@H](CCc2cc(F)c(C(F)(F)F)c(F)c2)C(=O)N2C[C@H](OCC)C[C@H]2C(=O)NC2(CC(C)(C)C2)C(=O)N(C)[C@@H](C2CCCC2)C(=O)N(C)[C@H](C(=O)N(C)C)CC(=O)N(C)[C@@H](CC(C)C)C(=O)N[C@@H]([C@@H](C)CC)C1=O [PP2050] |  | 0.19 | A (a compound having 10 or more and less than 20 is denoted as A) | A (a compound having 10 or more and less than 20 is denoted as A) |  |  |

More lines, main results first:

| Kd [3, 4] [nM] | Kd ([3]; SPR, Single Cycle Kinetics) [nM] | SMILES | HRAS/KRAS (ratio of KD value for HRAS to KD value for KRAS) [1] | NRAS/KRAS (ratio of KD value for NRAS to KD value for KRAS) [2] | HRAS/KRAS (ratio of KD value with respect to GDP-bound HRAS wild-type protein to KD value with respect to KRAS) ([1]; SPR KD ratio HRAS/KRAS, class symbols) | NRAS/KRAS (ratio of KD value with respect to GDP-bound NRAS wild-type protein to KD value with respect to KRAS) ([2]; SPR KD ratio NRAS/KRAS, class symbols) |
| --- | --- | --- | --- | --- | --- | --- |
| 0.2 |  | CCO[C@@H]1C[C@H]2C(=O)NC3(CC(C)(C)C3)C(=O)N(C)[C@@H](C(CC)CC)C(=O)N(C)[C@H](C(=O)N(C)C)CC(=O)N(C)[C@H]3CCC/C=C/c4ccc(cc4)C[C@@H](C(=O)N(C)CC(=O)N[C@@H](CCc4ccc(Cl)c(Cl)c4)C(=O)N2C1)N1CC/C=C\C[C@@H](C1=O)N(C)C(=O)CN(C)C(=O)[C@H]([C@@H](C)CC)NC3=O [PP2580] |  |  | A (a compound having 10 or more and less than 20 is denoted as A) | AA (a compound having 20 or more is denoted as AA) |
|  | 0.49 | CCO[C@@H]1C[C@H]2C(=O)NC3(CC(C)(C)C3)C(=O)N(C)[C@@H](C(CC)CC)C(=O)N(C)[C@H](C(=O)N(C)C)CC(=O)N(C)[C@@H](C(C)C)C(=O)N[C@@H]([C@@H](C)CC)C(=O)N(C)CC(=O)N(C)[C@H]3C/C=C\CCN(C3=O)[C@@H](Cc3ccc(C(F)(F)F)cc3)C(=O)N(C)CC(=O)N[C@@H](CCc3cc(F)c(C(F)(F)F)c(F)c3)C(=O)N2C1 [PP2135] | A (a compound having 10 or more and less than 20 is denoted as A) | AA (a compound having 20 or more is denoted as AA) |  |  |
